Values of other authors, collected in patent EP0836475B1, “CONTROLLED RELEASE FORMULATIONS FOR POORLY SOLUBLE DRUGS” (ELAN CORPORATION, Plc, priority 1995, dated 1997).

Conditions: ibuprofen from Lutrol-F68

CC(C)Cc1ccc(C(C)C(=O)O)cc1 (stereo not shown) [ibuprofen]
T50 value of in vitro release: approximately 30 min.
